Laboratory results from paper PMC10096180, “Half-Sandwich Type Platinum-Group Metal Complexes of C-Glucosaminyl Azines: Synthesis and Antineoplastic and Antimicrobial Activities” (Molecules, 2023).
Like-named read-outs stand apart in the source and are kept apart here.

Columns and labels:
[1] = system: A2780 cells; test: MTT reduction assay, early toxicity, 4 h treatment; type: cell-based; settings: inhibition at maximum concentration (100 μM) where no plateau, ND = not detectable
Description: (§1) The complexes described above are intended to replace registered platinum complexes. Platinum complexes constitute the core of the chemotherapy regimen used in ovarian cancer; therefore, we used a cellular model of ovarian cancer, A2780, and primary human dermal fibroblasts as models of non-transformed cells (controls). For the characterization of the complexes, we used an MTT assay after 4 h of treatment for the detection of early toxicity and an SRB assay 48 h after treatment for the detection of cytostasis.
(§2) An MTT reduction assay was measures the activity of mitochondrial complex I and can be used to detect toxicity. The assay was performed in a manner similar to that described in [84]. Briefly, cells were plated in 96-well plates the day before the assay. Cells were treated with the compounds for 4 h; then, MTT was added to a 0.5 mg/mL final concentration, and cells were incubated at 37 °C in a cell incubator for 40–60 min as a function of the cell line being assessed. Culture medium was removed, the reduced MTT dye was dissolved in dimethyl-sulfoxide, and plates were measured in a plate photometer (Thermo Scientific Multiscan GO spectrophotometer, Waltham, MA, USA) at 540 nm. On each plate, wells were designed to contain vehicle-treated cells. In calculations, the readings for these wells were considered to 1, and all readings were expressed relative to these values.
(§3) Statistical analysis was performed using version 8.0.1 of GraphPad Prism. Values were tested for normal distribution using the Shapiro–Wilk normality test. Nonlinear regression was performed using the built-in “[Inhibitor] vs. response—Variable slope (four parameters), least square fit” utility of GraphPad, which yielded IC50 and Hill slope values if the sigmoid curves reached a plateau of inhibition and there was no decrease between two subsequent data points or when inhibition was over 90%. In other cases, the percentage of inhibition was taken for the maximum concentration (100 μM).

[2] = system: primary human dermal fibroblasts; test: MTT reduction assay, early toxicity, 4 h treatment; type: cell-based; settings: up to 100 μM
Description: as §1, §2, §3

[3] = system: A2780 cells; test: SRB binding assay, cytostasis, 48 h treatment; type: cell-based; settings: for A2780 SRB Max Inhibition: up to 100 μM, ND = not detectable
Description: as §1
An SRB assay measures protein content of cells in correlation with the cell number in an assay well and can therefore be used to assess cell proliferation or long-term cytostasis. Cells were seeded in 96-well plates the day before the assay. Cells were treated with the compounds for 48 h. Then medium was removed, and cells were fixed with 10% trichloroacetic acid. Fixed cells were washed in distilled water 3 times, followed by staining with SRB (0.4 m/V% dissolved in 1% acetic acid) for 10 min. Stained cells were washed in 1% acetic acid 5 times; acetic acid was removed, and cells were left to dry. Protein-bound SRB was released by adding 100 μL 10 mM Tris base. Plates were measured in a plate photometer (Thermo Scientific Multiscan GO spectrophotometer, Waltham, MA, USA) at 540 nm. On each plate, wells were designed to contain vehicle-treated cells. In calculations, the readings for these wells were considered to be 1, and all readings were expressed relative to these values.
as §3

[4] = Distribution coefficient (logD), n-octanol-PBS; type: physicochemical; settings: n-octanol-PBS (pH = 7.4) system
Description: The logD values of the newly synthesized complexes were determined according to a procedure described in our previous publications. page 64: Ir-7b +1.17 Rh-7b +1.41 Ru-7c +1.31 Os-7c +1.59 Ir-7c +1.40 Rh-7c +1.13 Ru-7d +1.26 Os-7d +1.42 Ir-7d +1.30 Rh-7d +1.04 Ru-7e +2.22 Os-7e +2.21 Ir-7e +1.39 Rh-7e +1.66 *logD was determined in an n-octanol-PBS (pH = 7.4) system 64 (14 pictures or pasted objects on this page, not shown here)

[5] = system: Enterococcus faecalis (ATCC29212); test: Broth microdilution MIC, reference strain; type: cell-based; settings: 24 h, tested range 0.08–40 μM, read-out: MIC E. faecalis ATCC 29,212
Description: (§4) The reference strains of Staphylococcus aureus (ATCC29213) and Enterococcus faecalis (ATCC29212) were purchased from the ATCC (Manassas, VA, USA).
(§5) Microdilution experiments were performed according to the standards of EUCAST [85]. The bacterial isolates to be tested were grown on Mueller–Hinton agar plates. The inoculum density of bacteria was set at 5.0 × 10^5 CFU/mL in microtiter plates in a final volume of 200 μL Mueller–Hinton broth. The tested concentration range was 0.08–40 μM (10 concentrations, twofold serial dilutions), and a drug-free growth control and an inoculum-free negative control were included. The inoculated plates were incubated for 24 h at 37 °C, then visually assessed. Minimum inhibitory concentration (MIC) was defined as the lowest concentration with a 50%≤ inhibitory effect compared to the growth control. All experiments were performed at least twice in duplicate.

[6] = system: Staphylococcus aureus (ATCC29213); test: Broth microdilution MIC, reference strain; type: cell-based; settings: 0.08–40 μM, read-out: MIC S. aureus ATCC 29213
Description: as §4, §5

[7] = system: vancomycin-resistant Enterococcus (VRE) clinical isolates; test: Broth microdilution MIC, clinical VRE isolates; type: cell-based, E. faecium; settings: 24 h, 0.08–40 μM
Description: (§6) We used a set of clinical isolates of S. aureus and E. faecium that were collected at the Medical Center of the University of Debrecen (Hungary) between 1 January 2018. and 31 December 2020. The clinical isolates were identified using a Microflex MALDI-TOF mass spectrometer (Bruker, Billerica, MA, USA). The antibiotic susceptibility of the isolates was tested following the European Committee on Antimicrobial Susceptibility Testing (EUCAST) guidelines, which were valid at the time of collection.
as §5

[8] = system: methicillin-resistant Staphylococcus aureus (MRSA) clinical isolates; test: Broth microdilution MIC, clinical MRSA isolates; type: cell-based; settings: 24 h, 0.08–40 μM
Description: as §6, §5

[9] = clinical isolate 25,051 VRE, read-out: MIC 25,051 VRE
[10] = clinical isolate 25,498 VRE, read-out: MIC 25,498 VRE
[11] = clinical isolate 27,085 VRE, read-out: MIC 27,085 VRE
[12] = clinical isolate 20,426 MRSA, read-out: MIC 20,426 MRSA
[13] = clinical isolate 24,035 MRSA, read-out: MIC 24,035 MRSA
[14] = clinical isolate 24,268 MRSA, read-out: MIC 24,268 MRSA
[15] = clinical isolate 24,272 MRSA, read-out: MIC 24,272 MRSA
[16] = clinical isolate 24,328 MRSA, read-out: MIC 24,328 MRSA
[17] = clinical isolate 24,408 MRSA, read-out: MIC 24,408 MRSA

SMILES | logD [4] | MIC [5] | MIC ([6]; 24 h) | MIC [7, 9] | MIC [7, 10] | MIC [7, 11] | MIC [8, 12] | MIC [8, 13] | MIC [8, 14] | MIC [8, 15] | MIC [8, 16] | MIC [8, 17] | IC50 [3] | A2780 MTT Max Inhibition [1] | Fibroblast MTT Max Inhibition [2] | A2780 SRB Max Inhibition [3] | other results
Cc1c(C)c(C)[c-](C)c1C.F[P-](F)(F)(F)(F)F.NC1C(c2cccnn2)OC(COC(=O)c2ccccc2)C(OC(=O)c2ccccc2)C1OC(=O)c1ccccc1.[Cl][Rh+2] (mixture of isomers) [Rh-7b] | 1.41 | >40 µM | >40 µM | >40 µM | >40 µM | >40 µM | >40 µM | >40 µM | >40 µM | >40 µM | >40 µM | >40 µM | 32 µM | 62.85% | 11.39% | >90% | 
N[C@@H]1[C@@H](OC(=O)c2ccccc2)[C@H](OC(=O)c2ccccc2)[C@@H](COC(=O)c2ccccc2)O[C@H]1c1cccnn1 [Complex 7b, 3-(2′-Amino-2′-deoxy-3′,4′,6′-tri-O-benzoyl-β-D-glucopyranosyl)pyridazine] |  |  |  |  |  |  |  |  |  |  |  |  |  |  | 11.39% | 18.38% | inhibition at 100 µM ([1]; Homo sapiens, read-out: A2780 MTT Max Inhibition): 9.12%; MIC ([5]; Enterococcus faecalis): > 40 µM; MIC ([6]; Staphylococcus aureus, ATCC29213, 24 h): > 40 µM; MIC ([7]; Enterococcus, clinical isolate 25,051 VRE, read-out: MIC 25,051 VRE): > 40 µM; MIC ([7]; Enterococcus, clinical isolate 25,498 VRE, read-out: MIC 25,498 VRE): > 40 µM; MIC ([7]; Enterococcus, clinical isolate 27,085 VRE, read-out: MIC 27,085 VRE): > 40 µM; MIC ([8]; Staphylococcus aureus, clinical isolate 20,426 MRSA, read-out: MIC 20,426 MRSA): > 40 µM; MIC ([8]; Staphylococcus aureus, clinical isolate 24,035 MRSA, read-out: MIC 24,035 MRSA): > 40 µM; MIC ([8]; Staphylococcus aureus, clinical isolate 24,268 MRSA, read-out: MIC 24,268 MRSA): > 40 µM; MIC ([8]; Staphylococcus aureus, clinical isolate 24,272 MRSA, read-out: MIC 24,272 MRSA): > 40 µM; MIC ([8]; Staphylococcus aureus, clinical isolate 24,328 MRSA, read-out: MIC 24,328 MRSA): > 40 µM; MIC ([8]; Staphylococcus aureus, clinical isolate 24,408 MRSA, read-out: MIC 24,408 MRSA): > 40 µM
Cc1c(C)c(C)[c-](C)c1C.F[P-](F)(F)(F)(F)F.N[C@@H]1[C@@H](OC(=O)c2ccccc2)[C@H](OC(=O)c2ccccc2)[C@@H](COC(=O)c2ccccc2)O[C@H]1c1ccc2ccccc2n1.[Cl][Rh+2] [Rh-7e] | 1.66 | >40 µM | >40 µM | >40 µM | >40 µM | >40 µM | >40 µM | >40 µM | >40 µM | >40 µM | >40 µM | >40 µM |  | 31.89% |  | 67.32% | 
Cc1ccc(C(C)C)cc1.F[P-](F)(F)(F)(F)F.N[C@@H]1[C@@H](OC(=O)c2ccccc2)[C@H](OC(=O)c2ccccc2)[C@@H](COC(=O)c2ccccc2)O[C@H]1c1ccc2ccccc2n1.[Cl][Ru+] [Ru-7e] | 2.22 | >40 µM | >40 µM | >40 µM | >40 µM | >40 µM | >40 µM | >40 µM | >40 µM | >40 µM | >40 µM | >40 µM |  | 27.04% |  | 67.50% | 

The next lines start with results.

logD [4] | MIC [5] | MIC ([6]; 24 h) | MIC [7, 9] | MIC [7, 10] | MIC [7, 11] | MIC [8, 12] | MIC [8, 13] | MIC [8, 14] | MIC [8, 15] | MIC [8, 16] | MIC [8, 17] | IC50 [3] | SMILES | A2780 MTT Max Inhibition [1] | Fibroblast MTT Max Inhibition [2] | A2780 SRB Max Inhibition [3] | other results
1.17 | 40 µM | >40 µM | 40 µM | 40 µM | 40 µM | 40 µM | 40 µM | 40 µM | 40 µM | 40 µM | 40 µM |  | Cc1c(C)c(C)[c-](C)c1C.F[P-](F)(F)(F)(F)F.NC1C(c2cccnn2)OC(COC(=O)c2ccccc2)C(OC(=O)c2ccccc2)C1OC(=O)c1ccccc1.[Cl][Ir+2] (mixture of isomers) [Ir-7b] | 53.39% | 27.22% | 77.58% | 
1.32 | 10 µM | 20 µM | 10 µM | 10 µM | 10 µM | 10 µM | 10 µM | 10 µM | 10 µM | 20 µM | 10 µM | 56.4 µM | Cc1ccc(C(C)C)cc1.F[P-](F)(F)(F)(F)F.NC1C(c2cccnn2)OC(COC(=O)c2ccccc2)C(OC(=O)c2ccccc2)C1OC(=O)c1ccccc1.[Cl][Os+] (mixture of isomers) [Os-7b] | 53.39% | 27.22% | >90% | 
1.64 | >40 µM | >40 µM | >40 µM | >40 µM | >40 µM | >40 µM | >40 µM | >40 µM | >40 µM | >40 µM | >40 µM | 9.81 µM | Cc1c(C)c(C)[c-](C)c1C.F[P-](F)(F)(F)(F)F.N[C@@H]1[C@@H](OCc2ccccc2)[C@H](OCc2ccccc2)[C@@H](COCc2ccccc2)O[C@H]1c1ccccn1.[Cl][Rh+2] [Rh-3a] |  | 37.82% | >90% | 
